Measured values taken from US20230183237A1, “COMPETITIVE AND NONCOMPETITIVE INHIBITORS OF THE MUSCARINIC ACETYLCHOLINE RECEPTOR M5” (Vanderbilt University, priority 2020, published 2023).

The molecules below were run against T1, hM5 (Homo sapiens, UniProt P08912) (assay: Calcium mobilization concentration-response (IC50 vs EC80 acetylcholine), CHO hM5). Conditions: CELL LINE hM5; calcium mobilization, EC80 acetylcholine addition; read-out: IC50.
T1 construct: expressed in transfected cells
T1 sequence (P08912 1-532): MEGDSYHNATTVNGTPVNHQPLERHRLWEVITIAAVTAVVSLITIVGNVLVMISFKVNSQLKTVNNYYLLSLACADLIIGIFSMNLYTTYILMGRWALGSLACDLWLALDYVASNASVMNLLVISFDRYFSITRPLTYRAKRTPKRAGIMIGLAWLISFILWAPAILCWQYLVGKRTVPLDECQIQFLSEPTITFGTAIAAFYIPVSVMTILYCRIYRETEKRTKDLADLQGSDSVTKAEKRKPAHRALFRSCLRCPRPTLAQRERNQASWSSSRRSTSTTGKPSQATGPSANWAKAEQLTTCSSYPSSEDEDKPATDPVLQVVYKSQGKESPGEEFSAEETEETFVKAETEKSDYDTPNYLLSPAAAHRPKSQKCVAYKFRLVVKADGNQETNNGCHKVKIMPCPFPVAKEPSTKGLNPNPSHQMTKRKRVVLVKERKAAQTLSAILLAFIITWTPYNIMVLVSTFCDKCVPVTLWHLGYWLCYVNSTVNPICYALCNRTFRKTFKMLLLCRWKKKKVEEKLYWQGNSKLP
Assay type: cell-based
Description: Initial, single point (10 μM) compound characterization was performed in stable Chinese Hamster Ovary (CHO) cell lines constitutively expressing human M5 receptors. These were plated at 15,000 cells per 20 μL per well in Greiner 384-well black-walled, TC-treated, clear-bottomed plates (Fisher) in Ham's F12 medium supplemented with 10% FBS and 20 mM HEPES. Cells were incubated overnight at 37° C. under 5% CO2. The following day, medium was exchanged with assay buffer (Hank's Balanced Salt Solution supplemented with 20 mM HEPES and 2.5 mM Probenecid, pH 7.4) leaving 20 μL of assay buffer in each well. […] The cells were then incubated 50 minutes at 37° C. under 5% CO2. The assay buffer plus dye was then exchanged with fresh assay buffer leaving a volume of 20 μL in each well. Test compounds were diluted into assay buffer to a 2X (20 μM) concentration in 0.2% dimethylsulfoxide (DMSO) in columns 3-22 with matching DMSO concentration in columns 1, 2, 23, and […]; compounds were added to the assay for a final concentration of 10 μM and a final DMSO concentration of 0.1%.
Either an FDSS (Hamamatsu) or Panoptic (WaveFront Biosciences) kinetic imaging plate reader was used for assay execution and measurement of calcium flux. After establishing baseline fluorescence, test compounds (20 μL) were added to the cells using the reader's integrated pipettor and allowed to equilibrate for 140 seconds before addition of the […] concentration of acetylcholine (10 μL) along with vehicle in selected DMSO-only wells in the outer two columns . […] The raw fluorescence data from each well was normalized to the corresponding initial fluorescence reading (static ratio). The maximum fluorescence value following each addition was determined and the minimum value within that same timeframe was subtracted for each well then normalized to the average of the ECffiax maximum-minimum response, providing a % AChmax value for each addition for each well. The single point values represent mean values determined within the ECsu addition timeframe obtained from at least three independent determinations performed in triplicate or greater (error bars represent +/−SEM) unless otherwise specified.
CHO cells stably expressing hM1, hM2/Gqi5, hM3, hM4/Gqi5, hM5, rM1/Gqi5, rM3, rM4/Gqi5, or rM5 were plated in the manner described above. […] FDSS protocols were carried out as described above; the static ratio was calculated and the minimum response subtracted from the maximum response within the timeframe of each addition. This max-min response was then normalized to the maximum acetylcholine response. Calculation of IC50 was performed using the percent maximum acetylcholine response for the EC80 addition through the Vortex and Studies modules of the Dotmatics data management software. Results are stored in the Dotrnatics database and an audit trail of any changes to their analysis is generated. Data shown represent mean values obtained from at least three independent determinations performed in triplicate or greater (error bars represent±SEM) unless otherwise specified.
`COc1cc2ncnn2cc1C1CCN(S(=O)(=O)c2ccc3c(c2)CCO3)CC1` [Compound 80, 6-(1-((2,3-dihydrobenzofuran-5-yl)sulfonyl)piperidin-4-yl)-7-methoxy-[1,2,4]triazolo[1,5-a]pyridine] was tested, and the IC50 was over 10 µM. Molecule `CCc1cc2ncnn2cc1C1CCN(S(=O)(=O)c2cnn3c2CCCC3)CC1` [Compound 302, 7-ethyl-6-(1-((4,5,6,7-tetrahydropyrazolo[1,5-a]pyridin-3-yl)sulfonyl)piperidin-4-yl)-[1,2,4]triazolo[1,5-a]pyridine] has an IC50 of 0.054 µM. Molecule `Cc1cc2nccn2nc1C1CCN(S(=O)(=O)c2cnn(C)c2C)CC1` [Compound 251, 6-(1-((1,5-dimethyl-1H-pyrazol-4-yl)sulfonyl)piperidin-4-yl)-7-methylimidazo[1,2-b]pyridazine] has an IC50 of 0.034 µM. In the case of `O=S(=O)(c1cnn2c1CCC2)N1CCC(c2ccc3ncnn3c2)CC1` [Compound 285, 6-(1-((5,6-dihydro-4H-pyrrolo[1,2-b]pyrazol-3-yl)sulfonyl)piperidin-4-yl)-[1,2,4]triazolo[1,5-a]pyridine], the IC50 is reported as 0.051 µM. Work on `Cc1cc2c(cc1S(=O)(=O)N1CCC(c3cc(C)c4ncnn4c3)CC1)C(C)CO2` (centres unmarked) [Compound 86, 6-(1-((3,6-dimethyl-2,3-dihydrobenzofuran-5-yl)sulfonyl)piperidin-4-yl)-8-methyl-[1,2,4]triazolo[1,5-a]pyridine] yielded an IC50 of 9.2 µM. `O=S(=O)(c1ccc2c(c1)CCO2)N1CCC(c2cc3cnccc3s2)CC1` [Compound 14, 2-(1-((2,3-dihydrobenzofuran-5-yl)sulfonyl)piperidin-4-yl)thieno[3,2-c]pyridine] was tested, and the IC50 was over 10 µM. Work on `Cc1cc2nccn2nc1C1CCN(S(=O)(=O)c2ccc3c(c2)N(C)CCO3)CC1` [Compound 250, 4-methyl-6-((4-(7-methylimidazo[1,2-b]pyridazin-6-yl)piperidin-1-yl)sulfonyl)-3,4-dihydro-2H-benzo[b][1,4]oxazine] yielded an IC50 of 1.5 µM. With `O=S(=O)(c1ccc2ncsc2c1)N1CCC(c2cc3cc[nH]c3nn2)CC1` [Compound 22, 6-((4-(7H-pyrrolo[2,3-c]pyridazin-3-yl)piperidin-1-yl)sulfonyl)benzo[d]thiazole] the IC50 was 2.6 µM. Molecule `O=S(=O)(c1ccc2c(c1)CCO2)N1CCC(c2cn3ncnc3cc2C(F)(F)F)CC1` [Compound 109, 6-(1-((2,3-dihydrobenzofuran-5-yl)sulfonyl)piperidin-4-yl)-7-(trifluoromethyl)-[1,2,4]triazolo[1,5-a]pyridine] has an IC50 of 0.746 µM. `Cc1nn(C)cc1S(=O)(=O)N1CCC(c2cn3ncnc3cc2F)CC1` [Compound 108, 6-(1-((1,3-dimethyl-1H-pyrazol-4-yl)sulfonyl)piperidin-4-yl)-7-fluoro-[1,2,4]triazolo[1,5-a]pyridine] gave an IC50 of over 10 µM. Work on `O=S(=O)(c1cnn2c1CCCC2)N1CCC(c2cn3ncnc3cc2F)CC1` [Compound 237, 7-fluoro-6-(1-((4,5,6,7-tetrahydropyrazolo[1,5-a]pyridin-3-yl)sulfonyl)piperidin-4-yl)-[1,2,4]triazolo[1,5-a]pyridine] yielded an IC50 of 0.033 µM. In the case of `Cc1ncc(S(=O)(=O)N2CCC(F)(c3cn4ncnc4cc3C)CC2)s1` [Compound 245, 5-((4-fluoro-4-(7-methyl-[1,2,4]triazolo[1,5-a]pyridin-6-yl)piperidin-1-yl)sulfonyl)-2-methylthiazole], the IC50 is reported as over 10 µM. `O=S(=O)(c1ccc2ncsc2c1)N1CCC(c2cn3ncnc3cc2F)CC1` [Compound 107, 6-((4-(7-fluoro-[1,2,4]triazolo[1,5-a]pyridin-6-yl)piperidin-1-yl)sulfonyl)benzo[d]thiazole] showed an IC50 of over 10 µM. In the case of `Cc1cc2ncnn2nc1C1CCN(S(=O)(=O)c2ccc3ncsc3c2)CC1` [Compound 185, 6-((4-(7-methyl-[1,2,4]triazolo[1,5-b]pyridazin-6-yl)piperidin-1-yl)sulfonyl)benzo[d]thiazole], the IC50 is reported as over 10 µM. `[2H]C1([2H])Oc2cc(C)c(C3CCN(S(=O)(=O)c4cnc(C)n4C)CC3)cc2OC1([2H])[2H]` [Compound 391, 1-((1,2-dimethyl-1H-imidazol-5-yl)sulfonyl)-4-(7-methyl-2,3-dihydrobenzo[b][1,4]dioxin-6-yl-2,2,3,3-d4)piperidine] gave an IC50 of 0.636 µM.

Same assay, conditions: CELL LINE hM5; vs EC80 acetylcholine; read-out: IC50
Work on `[2H]C1([2H])CC(c2cn3ncnc3c(F)c2C)CC([2H])([2H])N1S(=O)(=O)c1cnc(C)o1` [Compound 569, 5-((4-(8-fluoro-7-methyl-[1,2,4]triazolo[1,5-a]pyridin-6-yl)piperidin-1-yl-2,2,6,6-d4)sulfonyl)-2-methyloxazole] yielded an IC50 of 0.174 µM. `[2H]C1([2H])CC(c2cn3ncnc3c(F)c2C)CC([2H])([2H])N1S(=O)(=O)c1cc(C)ns1` [Compound 527, 5-((4-(8-fluoro-7-methyl-[1,2,4]triazolo[1,5-a]pyridin-6-yl)piperidin-1-yl-2,2,6,6-d4)sulfonyl)-3-methylisothiazole] was tested, and the IC50 was 0.058 µM. `[2H]C([2H])([2H])Oc1c(S(=O)(=O)N2CCC(c3cn4ncnc4c(F)c3C)CC2)cnn1C` [Compound 614, 8-fluoro-6-(1-((5-(methoxy-d3)-1-methyl-1H-pyrazol-4-yl)sulfonyl)piperidin-4-yl)-7-methyl-[1,2,4]triazolo[1,5-a]pyridine] showed an IC50 of 0.059 µM. `Cc1cc2ncnn2cc1C1CCN(S(=O)(=O)c2cnn(C)c2CC#N)CC1` [Compound 401, 2-(1-methyl-4-((4-(7-methyl-[1,2,4]triazolo[1,5-a]pyridin-6-yl)piperidin-1-yl)sulfonyl)-1H-pyrazol-5-yl)acetonitrile] was tested, and the IC50 was 0.072 µM. `Cc1ncc(S(=O)(=O)N2CCC(F)(c3cn4ncnc4cc3C)CC2)o1` [Compound 560, 5-((4-fluoro-4-(7-methyl-[1,2,4]triazolo[1,5-a]pyridin-6-yl)piperidin-1-yl)sulfonyl)-2-methyloxazole] showed an IC50 of 3.14 µM. For `Cc1cc2nccn2nc1N1CCN(S(=O)(=O)c2cnc(C)n2C)CC1` [Compound 436, 6-(4-((1,2-dimethyl-1H-imidazol-5-yl)sulfonyl)piperazin-1-yl)-7-methylimidazo[1,2-b]pyridazine], the IC50 was 0.113 µM. `Cc1nc2n(c1C1CCN(S(=O)(=O)c3cnn(C)c3CC#N)CC1)CCCC2` [Compound 466, 2-(1-methyl-4-((4-(2-methyl-5,6,7,8-tetrahydroimidazo[1,2-a]pyridin-3-yl)piperidin-1-yl)sulfonyl)-1H-pyrazol-5-yl)acetonitrile] showed an IC50 of over 10 µM. For `Cc1c(C2CCN(S(=O)(=O)c3cnn(C)c3CC#N)CC2)cn2ncnc2c1F` [Compound 439, 2-(4-((4-(8-fluoro-7-methyl-[1,2,4]triazolo[1,5-a]pyridin-6-yl)piperidin-1-yl)sulfonyl)-1-methyl-1H-pyrazol-5-yl)acetonitrile], the IC50 was 0.162 µM. `Cc1cc2ncnn2cc1C1CCN(S(=O)(=O)c2cnn(C)c2OC(C)C)CC1` [Compound 603, 6-(1-((5-isopropoxy-1-methyl-1H-pyrazol-4-yl)sulfonyl)piperidin-4-yl)-7-methyl-[1,2,4]triazolo[1,5-a]pyridine] showed an IC50 of 0.244 µM. With `Cc1cc2ccnn2cc1C1CCN(S(=O)(=O)c2cnn(C)c2C)CC1` [Compound 453, 6-(1-((1,5-dimethyl-1H-pyrazol-4-yl)sulfonyl)piperidin-4-yl)-5-methylpyrazolo[1,5-a]pyridine] the IC50 was 0.216 µM. Work on `[2H]C1([2H])CC(c2cn3ncnc3cc2C(F)F)CC([2H])([2H])N1S(=O)(=O)c1cn(C)nn1` [Compound 595, 7-(difluoromethyl)-6-(1-((1-methyl-1H-1,2,3-triazol-4-yl)sulfonyl)piperidin-4-yl-2,2,6,6-d4)-[1,2,4]triazolo[1,5-a]pyridine] yielded an IC50 of 0.784 µM.
